# Results reported in patent publication US20230014352A1, “INHALED STATINS AS BRONCHODILATORS TO IMPROVE LUNG FUNCTION IN RESPIRATORY DISEASES” (priority 2019, published 2023).
# “Also recorded” adds a separate entry of the source. Like-named read-outs stand apart in the source and are kept apart here.
# Experiments:
# [1] = test system: primary human airway smooth muscle (ASM) cells; assay: Contractile force screening (CFS), basal ASM cell contraction (strain energy); type: cell-based; conditions: for basal ASM cell contraction / strain energy (ASM contraction): 24 hours; for basal ASM cell contraction: FIG. 1A/1D; for strain energy (ASM contraction): compared to pravastatin, FIG. 1C
# Procedure: Primary human airway smooth muscle (ASM) cells derived from both non-asthmatic and asthmatic donors were obtained from the Gift of Hope Organ and Tissue Donor Network. These cells have been well-characterized previously (see for example H. Yoshie et al., Biophys J (2018) 114(9):2194-99). All measurements were performed using cells at passage 5-8 from three non-asthmatic donors. Cells were grown on either 10% serum-containing F12 complete media, or serum-deprived media supplemented with insulin, transferrin, and selenium (Corning, Tewksbury, Mass.). Contractile Force Screening: Human ASM cells were grown to confluence in 96-well plates on custom NuSilTM 8100 elastic substrates (Avantor, Inc., Radnor, Pa.) (R. […] Fluorescent beads (diameter 400 nm) were embedded in the substrate surface to enable traction force calculations based on their displacements. To measure fractions, an inverted epi-fluorescence microscope (DMI 6000B, Leica Inc., Germany) equipped with a heated chamber (37° C.), a monochrome camera ([…]), and a motorized stage was used. Spatial images were recorded of substrate-embedded fluorescent beads at 10× magnification. Based on the bead displacements (resolution 15 μm) relative to a cell-free model, together with knowledge of substrate stiffness and thickness, fractions were computed using the approach of Fourier Transform Traction Cytometry ([…] et al., Pharmacol Ther (2014) 143(1):87-110), modified to the case of cell monolayers ([…] et al., Cell (2007) 129(3):511-22). From each fraction map, the root-mean-squared traction (RMST) value and strain energy were calculated and reported as a measure of normal contraction in the monolayer. On a well-by-well basis, the ratio of the strain energy after vs. before treatment was computed, and all values of a given treatment group were normalized to the mean of each treatment group. Comparison of Statins: […] MA is the immediate product of HMGCR action on HMB-CoA, so addition of MA would reverse the effect of statin inhibition of HMGCR. […] Simvastatin-acid (SA), atorvastatin, pravastatin, and pitavastatin were examined with CFS to determine the dose response of the ASM relaxation effect. […] From each ASM force map, the strain energy (i.e., the energy that is imparted to the substrate by the contractile cells, in pJ) was computed, to represent the average cellular contraction.
# [2] = test system: ASM cells; assay: Simulated deep breath (stretch-unstretch), cell mapping rheometry and CFS; type: cell-based, human; conditions: 10 μM, 30 min
# Procedure: Well-defined biaxial stretch (4 sec duration, 10% magnitude) was imposed using the method of cell mapping rheometry. The strain energy from each ASM force map was computed as a metric of average cellular contraction, and reported as fold changes to the pre-stretch baseline value.
# Normal ASM was treated with pitavastatin (1 μM, 24 hrs, n=7), isoproterenol (10 μM, 30 min, n=6) or vehicle (n=7), and examined by CFS as described above. […] Shown are contraction values normalized to the untreated control group. […] The contraction force gradually recovered over 180 seconds. […] All data are reported as mean and standard error of the mean (SEM).
# [3] = test system: precision-cut human lung slices; assay: Histamine-induced bronchoconstriction in precision-cut human lung slices, pitavastatin and isoproterenol; conditions: 30 μM for 30 min after histamine 10 μM 15 min; FIG. 13
# Procedure: The experiment was performed under serum-deprived media conditions, n=3-7 airways per group. Changes in lumen narrowing were reported as percentage changes (±SEM) of the pre-treatment state (see FIG. 13). The absolute value of lumen airway area was not statistically different between the pitavastatin and control groups at the pre-treatment state.
# [4] = test system: ASM cells; assay: RealTime-Glo Annexin V Apoptosis and Necrosis assay; type: cell-based, human
# Procedure: Lack of apoptosis: Some studies have shown that statins at high enough doses can reduce the viability of vascular smooth muscle cells, epithelial cells, and endothelial cells (S. Ghavami et al., Biochim Biophys Acta (2014) 1843(7):1259-71; T. P. Miettinen et al., Cell Rep (2015) 13(11):2610-20).
# RealTime-Glo™ Annexin V Apoptosis and Necrosis assay was performed by growing ASM cells on 96-well white cell culture plate according to the manufacturer's instructions (Promega Inc). […] In this real-time annexin V binding assay, the luminescence signal was detected for apoptosis and necrosis was detected with a fluorescence signal by using a SpectraMax® plate reader. […] (20 μg/mL) was used as a positive control (FIG. 2).
# [5] = Tissue distribution of inhaled (nebulized) simvastatin, mass spectrometry; conditions: day 12, organs collected after euthanasia
structure (smiles),measurement,setting,value
CCC(C)(C)C(=O)O[C@H]1C[C@@H](C)C=C2C=C[C@H](C)[C@H](CC[C@@H](O)C[C@@H](O)CC(=O)O)[C@H]21 [simvastatin acid],dose-dependent effect on ASM,"[1]; primary ASM cells from three different human donors, FIG. 3",dose-dependently relax ASM
same,start of ASM relaxing effects,"[1]; time-dependent effects, FIG. 4C",4 h
CC(C)NCC(O)c1ccc(O)c(O)c1 (centres unmarked) [isoproterenol],basal ASM contraction compared to untreated controls,[2]; FIG. 12A,significantly inhibited basal ASM contraction
same,augmentation of stretch-induced ASM force relaxation,[2]; FIG. 12B,not conferred; also recorded: notably absent
same,histamine (Hist)-induced bronchoconstriction,[3],reduced
CCC(C)(C)C(=O)O[C@H]1C[C@@H](C)C=C2C=C[C@H](C)[C@H](CC[C@@H]3C[C@@H](O)CC(=O)O3)[C@H]21 [simvastatin],basal ASM cell contraction,[1]; 1 μM,more potent
same,ASM contraction over time compared to control,"[1]; 1 μM, serum-deprived media, FIG. 10B",reduced ASM contraction time-dependently
same,apoptosis and necrosis (cell death),"[4]; statin doses tested, FIGS. 2B-E",no evidence of apoptosis or cell death
same,tissue distribution,[5],mostly present in the mainstem bronchi and the lower lobes
CC[C@H](C)C(=O)O[C@H]1C[C@H](O)C=C2C=C[C@H](C)[C@H](CC[C@@H](O)C[C@@H](O)CC(=O)O)[C@H]21 [pravastatin],strain energy (ASM contraction),[1]; 0.4 μM,no effect
same,apoptosis and necrosis (cell death),[4],no evidence of apoptosis or cell death
CC(C)c1nc(N(C)S(C)(=O)=O)nc(-c2ccc(F)cc2)c1/C=C/[C@@H](O)C[C@@H](O)CC(=O)O [rosuvastatin],basal ASM cell contraction,[1]; 1 μM,little to no effect
same,apoptosis and necrosis (cell death),[4],no evidence of apoptosis or cell death
CC(C)c1c(C(=O)Nc2ccccc2)c(-c2ccccc2)c(-c2ccc(F)cc2)n1CC[C@@H](O)C[C@@H](O)CC(=O)O [atorvastatin],strain energy (ASM contraction),[1]; 2 and 10 μM,significantly (and further) reduce strain energy
